Assay results: the supplement of paper PMC3974653
Counter-ions that a name gives are not always drawn.

System: MTT (mouse pheochromocytoma)
Experiment: IC50 of cell viability (ATP content)
Conditions: (24 or 48 h)
Summary of the method: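 CellTiter-Glo ATP luminescence, read after 15 minutes, was used to assess MTT mouse pheochromocytoma cells treated for 24 or 48 hrs with library compounds (final 0.5 nM to 46 µM, 8 concentrations). The cells had been plated at 5 µl of 200,000 cells/ml per well in white 1536-well plates in DMEM with 5% FBS and 1% horse serum and cultured overnight at 37°C, 5% CO2. Normalisation set positive-control wells to 100% and DMSO wells to 0%. The IC50 was then determined by four-parameter logistic fitting.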

Row | SMILES | IC50 of cell viability [µM]
1 | CCC(=O)O[C@H]1C(O[C@@H]2C(C)[C@H](O[C@H]3C[C@@](C)(OC)C(O)C(C)O3)C(C)C(=O)OC(CC)[C@@](C)(O)C(O)[C@H](C)C(=O)C(C)C[C@]2(C)O)OC(C)CC1N(C)C.CCCCCCCCCCCCO[S+](=O)([O-])O (stereo partly specified) [ERYTHROMYCIN ESTOLATE] | > 46
2 | CCC1OC(=O)C(C)[C@@H](O[C@H]2C[C@@](C)(OC)C(O)C(C)O2)C(C)[C@@H](O[C@@H]2OC(C)CC(N(C)C)C2O)[C@@](C)(O)CC(C)C(=O)[C@@H](C)C(O)[C@]1(C)O (stereo partly specified) [ERYTHROMYCIN] | > 46
3 | CN(C)CCC[C@@]1(c2ccc(F)cc2)OCc2cc(C#N)ccc21.O=C(O)C(=O)O [ESCITALOPRAM OXALATE] | > 46
4 | CNC1(c2ccccc2Cl)CCCCC1=O (stereo unspecified) [ESKETAMINUM] | > 46
5 | CC(=O)SCC(CC(=O)c1ccc(C)cc1)C(=O)O (stereo unspecified) [ESONARIMOD] | > 46
6 | ClC1=CC=C2[N]3C=NN=C3C\N=C(\C4=CC=CC=C4)C2=C1 [ESTAZOLAM] | > 46
7 | CC(=O)OC1CCC2C3CCc4cc(O)ccc4C3CCC12C (stereo unspecified) [ESTRADIOL ACETATE] | > 46
8 | C[C@]12CC[C@@H]3c4ccc(OC(=O)c5ccccc5)cc4CC[C@H]3[C@@H]1CC[C@@H]2O [ESTRADIOL BENZOATE] | > 46
9 | C[C@]12CC[C@@H]3c4ccc(O)cc4CC[C@H]3[C@@H]1CCC2OC(=O)CCC1CCCC1 (stereo partly specified) [ESTRADIOL CYPIONATE] | > 46
10 | CCCCC(=O)OC1CCC2C3CCc4cc(O)ccc4C3CC[C@]12C (stereo partly specified) [ESTRADIOL VALERATE] | > 46
11 | C[C@]12CC[C@@H]3c4ccc(OC(=O)N(CCCl)CCCl)cc4CC[C@@H]3[C@H]1CC[C@@H]2OP(=O)(O)O [ESTRAMUSTINE PHOSPHATE] | > 46
12 | CCCCCCCCCCCCCCCCCCOC[C@H](COP(=O)([O-])OCC[N+](C)(C)C)OC [ET-18-OCH3] | > 46
13 | CCN(CC)CCOc1ccccc1C(=O)CCc1ccccc1 [ETAFENONE HYDROCHLORIDE] | > 46
14 | O=C(Cn1ccnc1[N+](=O)[O-])NCCO [ETANIDAZOLE] | > 46
15 | CCC1(c2ccccc2)C(=O)N(COC)C(=O)N(COC)C1=O [ETEROBARBUM] | > 46
16 | C#C[C@]1(O)CC[C@H]2[C@@H]3CCc4cc(O)ccc4[C@H]3CC[C@@]21C [ETHINYL ESTRADIOL] | > 46
17 | CC\12CCC(=O)\C=C1CCC3C2CCC4(C)C3CCC4(O)C#C (stereo unspecified) [ETHISTERONE] | > 46
18 | C#C[C@]1(O)CC[C@H]2[C@@H]3CCC4=CC(=O)CCC4(C)[C@H]3CCC21C (stereo partly specified) [ETHISTERONUM] | > 46
19 | CCOc1ccc2nc([S+](N)(=O)[O-])sc2c1 [ETHOXZOLAMIDE] | > 46
20 | CCCCC/C=C/C/C=C/CCCCCCCC(=O)OCC [ETHYL LINOLEATE] | > 46

Row | SMILES | IC50 of cell viability [µM]
21 | CCOC(=O)c1cccnc1 [ETHYL NICOTINATE] | > 46
22 | CCOC(=O)c1ccccc1O [ETHYL SALICYLATE] | > 46
23 | CCOC1=C2O[C@H]3[C@@H](O)\C=C/[C@H]4[C@H]5CC(=C2[C@@]34CCN5C)C=C1 [ETHYLMORPHINE HYDROCHLORIDE] | > 46
24 | CCC(C(=O)NC(N)=O)c1ccccc1 (stereo unspecified) [ETHYLPHENACEMIDE] | > 46
25 | C#C[C@]1(OC(C)=O)CC[C@H]2[C@@H]3CCC4=C[C@@H](OC(C)=O)CC[C@@H]4[C@H]3CC[C@@]21C [ETHYNODIOL DIACETATE] | > 46
26 | CC(O)(P(=O)(O)O)P(=O)(O)O [ETIDRONATE DISODIUM] | > 46
27 | CCc1cc2c(s1)-n1c(C)nnc1CN=C2c1ccccc1Cl [ETIZOLAM] | > 46
28 | CC[C@]12CC(=C)[C@H]3[C@@H](CCC/4=C/C(=O)CC[C@H]34)[C@@H]1CC[C@@]2(O)C#C [ETONOGESTREL] | > 46
29 | Cc1ccc(-c2ncc(Cl)cc2-c2ccc(S(C)(=O)=O)cc2)cn1 [ETORICOXIB] | > 46
30 | CCOC(=O)/C=C(C)/C=C/C=C(C)/C=C/c1c(C)cc(OC)c(C)c1C [ETRETINATE] | > 46
31 | CCC(N)Cc1c[nH]c2ccccc12 (stereo unspecified) [ETRYPTAMINUM] | > 46
32 | CO[C@H]1C[C@@H]2CC[C@@H](C)[C@@](O)(O2)C(=O)C(=O)N2CCCC[C@H]2C(=O)O[C@H]([C@H](C)C[C@@H]2CC[C@@H](OCCO)[C@H](OC)C2)CC(=O)[C@H](C)C=C(C)[C@@H](O)[C@@H](OC)C(=O)[C@H](C)C[C@H](C)/C=C/C=C/C=C1C [EVEROLIMUS] | > 46
33 | CCCCCCOc1ccccc1C(N)=O [EXALAMIDE] | > 46
34 | C[C@]12CCC3C(CC(=C)C\4=C\C(=O)\C=C/[C@@]34C)C1CCC2=O (stereo partly specified) [EXEMESTANE] | > 46
35 | O=C1C(CCC(O)c2ccc(F)cc2)C(c2ccc(O)cc2)N1c1ccc(F)cc1 (stereo unspecified) [EZETIMIBE] | > 46
36 | O=c1c2ccccc2[se]n1-c1ccccc1 [Ebselen] | > 46
37 | CN1C=C(C2=CC=CC=C12)C3=C(/C(=O)NC\3=O)C4=CN(C5CCN(CC6=NC=CC=C6)CC5)C7=C4C=CC=C7 [Enzastaurin] | > 46
38 | C[C@@]12CC[C@H]3[C@@H](CC[C@@H]4C[C@H]5S[C@H]5C[C@]43C)[C@H]1CC[C@H]2O [Epitiostanol] | > 46
39 | CN1C[C@@H](\C=C\2[C@H]1CC3=C[NH]C4=C3C2=CC=C4)C(=O)N[C@]5(C)O[C@@]6(O)[C@@H]7CCCN7C(=O)[C@H](CC8=CC=CC=C8)N6C5=O.CN9C[C@@H](\C=C\%10[C@H]9CC%11=C[NH]C%12=C%11C%10=CC=C%12)C(=O)N[C@]%13(C)O[C@@]%14(O)[C@@H]%15CCCN%15C(=O)[C@H](CC%16=CC=CC=C%16)N%14C%13=O.O[C@H]([C@@H](O)C([O-])=O)C(O)=O [Ergotamine D-tartrate] | > 46
40 | OC[C@@H]1O[C@@H](OC2=CC\3=C(OC(=O)\C=C3)C=C2O)[C@H](O)[C@H](O)[C@@H]1O [Esculin Hydrate] | > 46

Continued, values first:

Row | IC50 of cell viability [µM] | SMILES
41 | > 46 | CC[C@@]12CCCN3CCc4c(n(c5ccccc45)C(=O)C1)[C@H]32 [Eburnamonine (-)]
42 | > 46 | CC[N+](C)(C)c1cccc(O)c1 [Edrophonium chloride]
43 | > 46 | CCOC(=O)COc1ccc2c(=O)cc(-c3ccccc3)oc2c1 [Efloxate]
44 | > 46 | CC1=C(C(=O)OCCN(Cc2ccccc2)c2ccccc2)C(c2cccc([N+](=O)[O-])c2)C(P2(=O)OCC(C)(C)CO2)=C(C)N1 (stereo unspecified) [Efonidipine]
45 | > 46 | OC(CN1CCC(Cc2ccc(F)cc2)CC1)c1ccc(Cl)cc1 (stereo unspecified) [Eliprodil]
46 | > 46 | CC(NC(CCc1ccccc1)C(=O)O)C(=O)N1CCCC1C(=O)O (stereo unspecified) [Enalapril acid]
47 | > 46 | CCOC(=O)[C@H](CCc1ccccc1)N[C@@H](C)C(=O)N1CCC[C@H]1C(=O)O [Enalaprila]
48 | > 46 | COc1ccc(C(=O)Nc2ccccc2CCC2CCCCN2C)cc1 (stereo unspecified) [Encainide hydrochloride]
49 | > 46 | CCN(CC)CCOc1ccc(/C(=C(/Cl)c2ccccc2)c2ccccc2)cc1 [Enclomifene]
50 | > 46 | CCN1\C=C(\C(O)=O)C(=O)C2=C1N=C(N3CCNCC3)C(=C2)F [Enoxacin]
51 | > 46 | CSC1=CC=C(C=C1)C(=O)\C2=C(/C)NC(=O)N2 [Enoximone]
52 | > 46 | CCN(CC)C(=O)/C(C#N)=C/c1cc(O)c(O)c([N+](=O)[O-])c1 [Entacapone]
53 | > 46 | CC(/C=C1\SC(=S)N(CC(=O)O)C1=O)=C\c1ccccc1 [Epalrestat]
54 | > 46 | C[C@]12CC[C@@H]3c4ccc(O)cc4CC[C@H]3[C@@H]1C[C@H](O)C2O (stereo partly specified) [Epiestriol]
55 | > 46 | COc1cc(C)nc(-n2nc(C)cc2OC)n1 [Epirizole]
56 | > 46 | COC(=O)[C@@H]1CC2=CC(=O)CC[C@]2(C)[C@@]23O[C@@H]2C[C@@]2(C)[C@@H](CC[C@@]24CCC(=O)O4)[C@H]13 [Eplerenone]
57 | > 46 | CCC(C)C1OC2(C=CC1C)CC1CC(CC=C(C)C(OC3CC(OC)C(OC4CC(OC)C(NC(C)=O)C(C)O4)C(C)O3)C(C)C=CC=C3COC4C(O)C(C)=CC(C(=O)O1)C34O)O2 (stereo unspecified) [Eprinomectin B1a]
58 | > 46 | CC(C)(C)NC(=O)[C@H]1CC[C@H]2[C@@H]3CC=C4C=C(C(=O)O)CC[C@@]4(C)[C@H]3CC[C@]12C [Epristeride]
59 | > 46 | O=C(NCCCN1CCOCC1)c1ccc(Cl)cc1 [Eprobemida]
60 | > 46 | CCCCc1ncc(/C=C(\Cc2cccs2)C(=O)O)n1Cc1ccc(C(=O)O)cc1 [Eprosartan mesylate]
61 | > 46 | COc1cc2[nH]c(C)c(CCN3CCN(c4ccccc4)CC3)c2cc1OC [Equipertine hydrochloride]
62 | > 46 | O=C(O)CSCC(=O)NC1CCSC1=O (stereo unspecified) [Erdosteine]
63 | > 46 | C#Cc1cccc(Nc2ncnc3cc(OCCOC)c(OCCOC)cc23)c1 [Erlotinib]
64 | > 46 | CCOC(=O)CCC(=O)OC1C(OC2C(C)C(OC3CC(C)(OC)C(O)C(C)O3)C(C)C(=O)OC(CC)C(C)(O)C(O)C(C)C(=O)C(C)CC2(C)O)OC(C)CC1N(C)C (stereo unspecified) [Erythromycin ethyl succinate]
65 | > 46 | O=C1OC2(c3ccccc31)c1cc(I)c(O)c(I)c1Oc1c2cc(I)c(O)c1I [Erythrosin B]
66 | > 46 | O=C(CN1CCNCC1)NC1CCCCC1 [Esaprazola]
